Assay results: ChEMBL document CHEMBL1138548, “Three-dimensional QSAR analyses of 1,3,4-trisubstituted pyrrolidine-based CCR5 receptor inhibitors” (Eur J Med Chem, 2008)

Target: C-C chemokine receptor type 5 (Homo sapiens, UniProt P51681)
Experiment: biochemical
Type: cell-based, CHO
Description: Displacement of [125I]MIP1alpha from human CCR5 expressed in CHO cells

Chain of C-C chemokine receptor type 5 (P51681 whole entry): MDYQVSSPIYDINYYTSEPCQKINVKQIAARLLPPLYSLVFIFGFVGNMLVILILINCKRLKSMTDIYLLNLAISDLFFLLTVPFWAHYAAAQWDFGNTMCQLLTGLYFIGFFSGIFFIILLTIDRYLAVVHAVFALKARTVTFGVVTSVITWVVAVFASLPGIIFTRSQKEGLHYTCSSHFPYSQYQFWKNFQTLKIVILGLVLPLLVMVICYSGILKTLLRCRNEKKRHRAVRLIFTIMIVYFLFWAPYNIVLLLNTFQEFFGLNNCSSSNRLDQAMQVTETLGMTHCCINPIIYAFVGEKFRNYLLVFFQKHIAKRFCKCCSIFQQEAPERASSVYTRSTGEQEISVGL

Row | IC50 [nM] | Compound
1 | 122 | CCn1nc(-c2ccc(CN)cc2)cc1C1CCN(C[C@H]2CN([C@@H](C(=O)O)C3CCCCC3)C[C@@H]2c2ccccc2)CC1
2 | 0.89 | CCc1nc(Cc2ccccc2)oc1C1CCN(C[C@H]2CN([C@H](CC3CCC3)C(=O)O)C[C@@H]2c2ccccc2)CC1
3 | 0.3 | O=C(O)[C@@H](CC1CCCCC1)N1C[C@H](CN2CCC(CCC(F)(F)c3ccc(F)cc3)CC2)[C@@H](c2ccccc2)C1
4 | 0.4 | Cn1nnc(-c2ccc(CCCC3(O)CCN(C[C@H]4CN(CC5CCCCC5)C[C@@H]4c4ccccc4)CC3)cc2)n1
5 | 6.9 | CCn1nc(C(C)(C)c2ccccc2)cc1C1CCN(C[C@H]2CN([C@@H](C(=O)O)C3CCCCC3)C[C@@H]2c2ccccc2)CC1
6 | 3.6 | C=C(Cc1ccccc1)[C@@H](C1CCCCC1)N1C[C@H](CN2CCC(O)(CCCc3ccccc3)CC2)[C@@H](c2ccccc2)C1
7 | 0.9 | CC(C)C[C@H](C(=O)O)N1C[C@H](CN2CCC(CCS(=O)(=O)c3ccc(F)cc3)CC2)[C@@H](c2cccc(F)c2)C1
8 | 0.76 | CCc1nc(Cc2ccccc2)sc1C1CCN(C[C@H]2CN([C@H](CC3CCC3)C(=O)O)C[C@@H]2c2ccccc2)CC1
9 | 1.2 | O=C(O)[C@@H](C1CCCCC1)N1C[C@H](CN2CCC(c3cc(Cc4ccccc4)on3)CC2)[C@@H](c2ccccc2)C1
10 | 0.8 | CC(C)C[C@H](C(=O)O)N1C[C@H](CN2CCC(CCSc3ccc(F)cc3)CC2)[C@@H](c2cccc(F)c2)C1
11 | 0.5 | CC(C)C[C@H](C(=O)O)N1C[C@H](CN2CCC(CCC(F)(F)c3ccc(F)cc3)CC2)[C@@H](c2cccc(F)c2)C1
12 | 0.6 | O=C(O)[C@@H](CC1CCC1)N1C[C@H](CN2CCC(c3[nH]c(Cc4ccccc4)nc3Cl)CC2)[C@@H](c2ccccc2)C1
13 | 12 | O=C(O)[C@@H](CC1CCC1)N1C[C@H](CN2CCC(c3nnc4ccccn34)CC2)[C@@H](c2cccc(F)c2)C1
14 | 1 | CCc1nc(Cc2ccccc2)sc1C1CCN(C[C@H]2CN([C@H](CC(C)C)C(=O)O)C[C@@H]2c2ccccc2)CC1
15 | 2.1 | O=C(O)[C@@H](C1CCCCC1)N1C[C@H](CN2CCC(c3cc(C(F)(F)c4ccccc4)n[nH]3)CC2)[C@@H](c2ccccc2)C1
16 | 11.5 | CC(C)(c1ccccc1)c1cc(C2CCN(C[C@H]3CN([C@@H](C(=O)O)C4CCCCC4)C[C@@H]3c3ccccc3)CC2)[nH]n1
17 | 0.57 | CCc1nc(Cc2ccccc2)[nH]c1C1CCN(C[C@H]2CN([C@H](CC3CCC3)C(=O)O)C[C@@H]2c2ccccc2)CC1
18 | 3.7 | O=C(O)[C@@H](CC1CC1)N1C[C@H](CN2CCC(CCC(OCCO)c3ccc(F)cc3)CC2)[C@@H](c2cccc(F)c2)C1 (some centres not stated)
19 | 0.23 | O=C(O)[C@@H](CC1CCC1)N1C[C@H](CN2CCC(c3cnc(Cc4ccccc4)s3)CC2)[C@@H](c2ccccc2)C1
20 | 0.8 | O=C(O)[C@@H](C1CCCCC1)N1C[C@H](CN2CCC(c3cc(Cc4ccccc4)no3)CC2)[C@@H](c2ccccc2)C1
21 | 200 | O=C(O)[C@@H](CC1CCC1)N1C[C@H](CN2CCC(c3cn4cccnc4n3)CC2)[C@@H](c2cccc(F)c2)C1
22 | 0.23 | O=C(O)[C@@H](CC1CC1)N1C[C@H](CN2CCC(c3cnc(Cc4ccccc4)s3)CC2)[C@@H](c2ccccc2)C1
